Measurements as given in patent publication US20210261512A1, “NOVEL COMPOUNDS” (INFLAZOME LIMITED, priority 2018, published 2021).
pIC50: −log10 of the molar value.

How the values were obtained:
[1] = target: T1, NLRP3 (Homo sapiens, UniProt Q96P20); experiment: Human whole blood IL1β release assay; type: cell-based; conditions: LPS 1 μg/ml, nigericin 10 μM, IL-1β AlphaLisa, 10 μM top dose (Example 2: top dose of 30 μM), read-out: HWB IC50
Method in brief: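 Healthy-donor heparinised human whole blood with 1 μg/ml LPS, compound (8-point half-log dilution, 10 μM top dose unless stated; 0.1% DMSO vehicle) for 3 h at 37 °C, then nigericin 10 μM final for 1 h. Supernatant IL-1β by AlphaLISA; IC50 from 4-parameter variable-slope fit.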

[2] = target: T1, NLRP3; experiment: THP-1 cells pyroptosis assay; type: cell-based; design: Seed THP-1 cells (25,000 cells/well) containing 1.0 μg/ml LPS; host or cells: THP-1; conditions: LPS 1.0 μg/ml, nigericin 5 μM, resazurin readout, 10 μM top dose (Example 2: top dose of 30 μM)
Method in brief: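 THP-1 cells (25,000/well) primed with 1 μg/ml LPS in serum-free RPMI, treated with compound (8-point dilution, 10 μM top unless stated; 0.1% DMSO) 3 h at 37°C, then nigericin 5 μM 1 h. Viability read by resazurin (100 μM, 1-2 h) fluorescence; IC50 from 4-parameter fit.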

[3] = PK, intravenous administration; type: in vivo; conditions: rat, plasma, male Sprague Dawley rats, dose about 1 mg/kg; for Vd: read-out: Vdss
Method in brief: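 Male Sprague Dawley rats (6-9 weeks); IV dosing via tail vein as solution in DMSO:water or DMSO:PBS (10:90), oral dosing in 0.5% methylcellulose after overnight fasting. Plasma sampled at 8 time-points to 24 h; parameters derived from LC-MS/MS data.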

T1 sequence (Q96P20 whole entry): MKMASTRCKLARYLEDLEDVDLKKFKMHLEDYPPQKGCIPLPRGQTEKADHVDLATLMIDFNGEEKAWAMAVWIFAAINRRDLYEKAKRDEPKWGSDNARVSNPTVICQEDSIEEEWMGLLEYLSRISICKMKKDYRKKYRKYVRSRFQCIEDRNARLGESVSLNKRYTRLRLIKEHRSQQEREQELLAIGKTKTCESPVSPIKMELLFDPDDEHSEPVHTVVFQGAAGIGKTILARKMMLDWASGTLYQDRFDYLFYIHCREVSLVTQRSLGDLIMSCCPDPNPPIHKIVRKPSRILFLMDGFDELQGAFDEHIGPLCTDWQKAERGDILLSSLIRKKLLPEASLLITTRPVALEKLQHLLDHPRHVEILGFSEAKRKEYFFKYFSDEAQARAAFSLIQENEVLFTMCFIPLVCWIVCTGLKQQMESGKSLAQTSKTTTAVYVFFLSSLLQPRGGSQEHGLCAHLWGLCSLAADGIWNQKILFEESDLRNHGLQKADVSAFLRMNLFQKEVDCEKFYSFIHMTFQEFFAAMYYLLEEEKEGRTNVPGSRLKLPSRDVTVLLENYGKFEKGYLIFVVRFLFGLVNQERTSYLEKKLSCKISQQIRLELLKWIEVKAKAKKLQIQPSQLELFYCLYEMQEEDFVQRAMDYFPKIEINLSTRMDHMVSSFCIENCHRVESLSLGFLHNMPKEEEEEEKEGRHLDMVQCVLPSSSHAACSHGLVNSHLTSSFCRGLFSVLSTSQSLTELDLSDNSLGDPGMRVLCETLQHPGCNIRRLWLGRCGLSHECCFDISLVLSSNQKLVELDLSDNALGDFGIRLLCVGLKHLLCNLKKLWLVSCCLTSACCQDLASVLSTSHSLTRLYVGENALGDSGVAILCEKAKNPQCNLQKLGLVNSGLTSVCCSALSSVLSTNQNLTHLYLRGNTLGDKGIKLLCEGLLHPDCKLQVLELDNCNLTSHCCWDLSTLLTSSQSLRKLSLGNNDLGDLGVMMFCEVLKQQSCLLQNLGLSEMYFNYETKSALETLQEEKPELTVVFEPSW

Structure (SMILES)	pIC50 [1]	pIC50 [2]	AUC [3]	clearance [3]	half-life [3]	Vd [3]
COc1cc(-c2cc(F)cc(C(C)C)c2Oc2nnc(S(=O)(=O)N3CCC(CN(C)C)C3)[nH]2)ccn1 (stereo not drawn) [Example 69, 1-(1-((5-(4-fluoro-2-isopropyl-6-(2-methoxypyridin-4-yl)phenoxy)-4H-1,2,4-triazol-3-yl)sulfonyl)pyrrolidin-3-yl)-N,N-dimethylmethanamine]	≥ 6.00	≥ 6.00	267 ng·h/mL	65.5 mL/min/kg	42.6 min	1.29 L/kg
CS(=O)(=O)c1nnc(Nc2c3c(cc4c2CCC4)CCC3)[nH]1 [Example 75, N-(1,2,3,5,6,7-hexahydro-s-indacen-4-yl)-5-(methylsulfonyl)-4H-1,2,4-triazol-3-amine]	≥ 5.00	≥ 5.30	1000 ng·h/mL	16.7 mL/min/kg	30 min	0.56 L/kg
CCN(CC)CCCS(=O)(=O)c1nnc(Nc2c(-c3ccnc(OC)c3)ccc3c2CCC3)[nH]1 [Example 76, 5-((3-(diethylamino)propyl)sulfonyl)-N-(5-(2-methoxypyridin-4-yl)-2,3-dihydro-1H-inden-4-yl)-4H-1,2,4-triazol-3-amine]	≥ 5.30	≥ 6.30	210 ng·h/mL	79.4 mL/min/kg	54 min	2.48 L/kg
CCN(CC)CCCS(=O)(=O)c1nnc(Nc2c(-c3ccnc(OC)c3)cc(F)cc2C(C)C)[nH]1 [Example 79, 5-((3-(diethylamino)propyl)sulfonyl)-N-(4-fluoro-2-isopropyl-6-(2-methoxypyridin-4-yl)phenyl)-4H-1,2,4-triazol-3-amine]	≥ 5.30	≥ 6.30	277 ng·h/mL	60 mL/min/kg	154 min	5.03 L/kg
CCN(CC)CCNS(=O)(=O)c1nnc(Nc2c3c(cc4c2CCC4)CCC3)[nH]1 [Example 81, N-(2-(diethylamino)ethyl)-5-((1,2,3,5,6,7-hexahydro-s-indacen-4-yl)amino)-4H-1,2,4-triazole-3-sulfonamide]	≥ 6.00	≥ 6.30	278 ng·h/mL	59.9 mL/min/kg	90 min	4.61 L/kg
CN(C)CCNS(=O)(=O)c1nnc(Nc2c3c(cc4c2CCC4)CCC3)[nH]1 [Example 94, N-(2-(dimethylamino)ethyl)-5-((1,2,3,5,6,7-hexahydro-s-indacen-4-yl)amino)-4H-1,2,4-triazole-3-sulfonamide]	≥ 6.00	≥ 6.00	354 ng·h/mL	47.1 mL/min/kg	78 min	3.21 L/kg
CN(C)C1CCN(S(=O)(=O)c2nnc(Nc3c4c(cc5c3CCC5)CCC4)[nH]2)CC1 [Example 118, 1-((5-((1,2,3,5,6,7-hexahydro-s-indacen-4-yl)amino)-4H-1,2,4-triazol-3-yl)sulfonyl)-N,N-dimethylpiperidin-4-amine]	≥ 6.30	≥ 6.30	307 ng·h/mL	54.2 mL/min/kg	84 min	4.01 L/kg
CN(C)CC1CCN(S(=O)(=O)c2nnc(Nc3c4c(cc5c3CCC5)CCC4)[nH]2)C1 (stereo not drawn) [Example 119, 5-((3-((dimethylamino)methyl)pyrrolidin-1-yl)sulfonyl)-N-(1,2,3,5,6,7-hexahydro-s-indacen-4-yl)-4H-1,2,4-triazol-3-amine]	≥ 6.30	≥ 6.30	162 ng·h/mL	106 mL/min/kg	156 min	10.1 L/kg
CNC1CCN(S(=O)(=O)c2nnc(Nc3c4c(cc5c3CCC5)CCC4)[nH]2)CC1 [Example 130, 1-((5-((1,2,3,5,6,7-hexahydro-s-indacen-4-yl)amino)-4H-1,2,4-triazol-3-yl)sulfonyl)-N-methylpiperidin-4-amine]	≥ 5.30	≥ 6.00	509 ng·h/mL	32.8 mL/min/kg	468 min	10.6 L/kg
CC(C)c1cc(F)cc(-c2ccncc2)c1Cc1nnc(S(=O)(=O)N2CCC(CN(C)C)C2)[nH]1 (stereo not drawn) [Example 153, 1-(1-((5-(4-fluoro-2-isopropyl-6-(pyridin-4-yl)benzyl)-4H-1,2,4-triazol-3-yl)sulfonyl)pyrrolidin-3-yl)-N,N-dimethylmethanamine]	≥ 5.30	≥ 6.30	198 ng·h/mL	84.1 mL/min/kg	21.6 min	2.66 L/kg
COc1cc(-c2cc(F)cc(C(C)C)c2Cc2nnc(S(=O)(=O)N3CCC(CN(C)C)C3)[nH]2)ccn1 (stereo not drawn) [Example 156, 1-(1-((5-(4-fluoro-2-isopropyl-6-(2-methoxypyridin-4-yl)benzyl)-4H-1,2,4-triazol-3-yl)sulfonyl)pyrrolidin-3-yl)-N,N-dimethylmethanamine]	≥ 5.30	≥ 6.00	193 ng·h/mL	103 mL/min/kg	24 min	2.95 L/kg
Cn1ccc(S(=O)(=O)c2nnc(Nc3c4c(cc5c3CCC5)CCC4)[nH]2)n1 [Example 176, N-(1,2,3,5,6,7-hexahydro-s-indacen-4-yl)-5-((1-methyl-1H-pyrazol-3-yl)sulfonyl)-4H-1,2,4-triazol-3-amine]	≥ 5.00	≥ 6.00	814 ng·h/mL	19.1 mL/min/kg	28.4 min	0.41 L/kg
CN1CCC2(C1)CN(S(=O)(=O)c1nnc(Nc3c(-c4ccnc(OC(F)F)c4)ccc4c3CCO4)[nH]1)C2 [Example 212, N-(5-(2-(difluoromethoxy)pyridin-4-yl)-2,3-dihydrobenzofuran-4-yl)-5-((6-methyl-2,6-diazaspiro[3.4]octan-2-yl)sulfonyl)-4H-1,2,4-triazol-3-amine]	≥ 6.30	≥ 6.30	216 ng·h/mL	76.1 mL/min/kg	11.4 min	0.88 L/kg
COc1cc(-c2ccc3c(c2Nc2nnc(S(=O)(=O)N4CC5(CCN(C)C5)C4)[nH]2)CCO3)ccn1 [Example 214, N-(5-(2-methoxypyridin-4-yl)-2,3-dihydrobenzofuran-4-yl)-5-((6-methyl-2,6-diazaspiro[3.4]octan-2-yl)sulfonyl)-4H-1,2,4-triazol-3-amine]	≥ 6.30	≥ 6.30	182 ng·h/mL	78.1 mL/min/kg	15 min	1.02 L/kg
COc1cc(-c2ccc3c(c2Nc2nnc(S(=O)(=O)N4CC5(CCN(C)C5)C4)[nH]2)CCC3)ccn1 [Example 215, N-(5-(2-methoxypyridin-4-yl)-2,3-dihydro-1H-inden-4-yl)-5-((6-methyl-2,6-diazaspiro[3.4]octan-2-yl)sulfonyl)-4H-1,2,4-triazol-3-amine]	≥ 6.30	≥ 6.30	58 ng·h/mL	121 mL/min/kg	31.2 min	2.86 L/kg
COc1cc(-c2c(C)cc3c(c2Nc2nnc(S(=O)(=O)N4CCC(N(C)C)CC4)[nH]2)CCC3)ccn1 [Example 216, 1-((5-((5-(2-methoxypyridin-4-yl)-6-methyl-2,3-dihydro-1H-inden-4-yl)amino)-4H-1,2,4-triazol-3-yl)sulfonyl)-N,N-dimethylpiperidin-4-amine]	≥ 6.00	≥ 6.30	224 ng·h/mL	72.3 mL/min/kg	131 min	6.41 L/kg
COc1cc(-c2ccc3c(c2Nc2nnc(S(=O)(=O)N4CCC(N(C)C)CC4)[nH]2)CCO3)ccn1 [Example 226, 1-((5-((5-(2-methoxypyridin-4-yl)-2,3-dihydrobenzofuran-4-yl)amino)-4H-1,2,4-triazol-3-yl)sulfonyl)-N,N-dimethylpiperidin-4-amine]	≥ 6.00	≥ 6.30	216 ng·h/mL	77.2 mL/min/kg	46.8 min	1.48 L/kg
COc1cc(-c2ccc3c(c2Nc2nnc(S(=O)(=O)N4CC[C@H](C(C)(C)O)C4)[nH]2)CCC3)ccn1 [Example 231, (S)-2-(1-((5-((5-(2-methoxypyridin-4-yl)-2,3-dihydro-1H-inden-4-yl)amino)-4H-1,2,4-triazol-3-yl)sulfonyl)pyrrolidin-3-yl)propan-2-ol]	≥ 6.00	≥ 6.30	459 ng·h/mL	36.3 mL/min/kg	19.6 min	0.494 L/kg
O=S(=O)(c1nnc(Nc2c3c(cc4c2CCC4)CCC3)[nH]1)N1CC2(CCN(C3CC3)C2)C1 [Example 245, 5-((6-cyclopropyl-2,6-diazaspiro[3.4]octan-2-yl)sulfonyl)-N-(1,2,3,5,6,7-hexahydro-s-indacen-4-yl)-4H-1,2,4-triazol-3-amine]	≥ 5.30	≥ 6.30	393 ng·h/mL	49.6 mL/min/kg	44.4 min	1.63 L/kg
CC(C)c1cc(F)cc(C(C)C)c1Nc1nnc(S(=O)(=O)N2CCC3(CCCN3C)CC2)[nH]1 [Example 247, N-(4-fluoro-2,6-diisopropylphenyl)-5-((i-methyl-1,8-diazaspiro[4.5]decan-8-yl)sulfonyl)-4H-1,2,4-triazol-3-amine]	≥ 6.30	≥ 6.30	253 ng·h/mL	72.5 mL/min/kg	163 min	12.7 L/kg
